EP4813992A1, “POLYARYL DERIVATIVE AND USE THEREOF” (Hangzhou HealZen Therapeutics Co., Ltd., priority 2023, dated 2025)

Experiments:
HPK1 kinase [1] = biological target: T1, HPK1 kinase (Homo sapiens, UniProt Q92918); assay: Lantha screen assay, inhibitory effect on HPK1 kinase; format: biochemical; settings: initial compound concentration 1 µM
Protocol: The Lantha screen assay is used to evaluate the inhibitory effect of the compounds on HPK1 kinase. • a) Kinase buffer: 50 mM HEPES (pH 7.5), 10 mM MgCl2, 4 mM DTT, 0.01% Tween-20, 0.01% BSA. • b) Compound Preparation: The compound is diluted with DMSO, and the initial detection concentration of the compound is 1 µM and is diluted to the corresponding concentration. • c) Kinase response and termination: A kinase solution is prepared by adding kinase buffer, the kinase solution and the compound are added to the test plate to be incubated at room temperature for 10 minutes. Fluorescein-PKC and ATP are added to the kinase buffer to form a substrate solution, and 5 µl of the substrate solution is added to the test plate to start the reaction to be incubated at room temperature for 90 minutes; then, 10 µl of a mixture of antibody and EDTA is added to terminate the reaction to be incubated at room temperature for 60 minutes. • d) The date is read by Envision instrument to plot a curve with the Log concentration of the inhibitor as the X-axis and the inhibition rate as the Y-axis, and then the formula Y=Bottom + (Top-Bottom)/(1+(IC50/X)^HillSlope) is used to obtain IC50. Table 1 Inhibitory activity the compounds of the invention on HPK1 kinase

HPK1 kinase [2] = biological target: T1, HPK1 kinase; assay: Activity of degrading HPK1 in Jurkat cells (Western blot, 24 h); format: cell-based; design: endogenous in cells; host or cells: Jurkat; settings: HPK1 protein degradation
Protocol: The adjusted samples are added to 5*loading buffer, boiled at 100°C for 10 minutes, and then the samples are loaded after the temperature is returned to room temperature. • 4) Detection of samples: Electrophoresis is performed using 10% SDS-PAGE with a sample loading volume of 8 µL/well. After the membrane transfer is completed, the samples are blocked with 5% BSA at room temperature for 1 h. After the residual blocking solution is washed away with TBST, HPK1 and GAPDH antibodies are added for incubation overnight at 4°C. Washing is performed 3 more times with TBST on a shaker, 10 minutes each time. After washing is completed, the secondary antibody is added for incubation at room temperature for 1 hour; then, washing is performed 3 more times with TBST on a shaker, 10 minutes each time; finally, ECL exposure solution is used to develop and image the bands to detect changes in HPK1 protein.

T1 sequence (Q92918 whole entry): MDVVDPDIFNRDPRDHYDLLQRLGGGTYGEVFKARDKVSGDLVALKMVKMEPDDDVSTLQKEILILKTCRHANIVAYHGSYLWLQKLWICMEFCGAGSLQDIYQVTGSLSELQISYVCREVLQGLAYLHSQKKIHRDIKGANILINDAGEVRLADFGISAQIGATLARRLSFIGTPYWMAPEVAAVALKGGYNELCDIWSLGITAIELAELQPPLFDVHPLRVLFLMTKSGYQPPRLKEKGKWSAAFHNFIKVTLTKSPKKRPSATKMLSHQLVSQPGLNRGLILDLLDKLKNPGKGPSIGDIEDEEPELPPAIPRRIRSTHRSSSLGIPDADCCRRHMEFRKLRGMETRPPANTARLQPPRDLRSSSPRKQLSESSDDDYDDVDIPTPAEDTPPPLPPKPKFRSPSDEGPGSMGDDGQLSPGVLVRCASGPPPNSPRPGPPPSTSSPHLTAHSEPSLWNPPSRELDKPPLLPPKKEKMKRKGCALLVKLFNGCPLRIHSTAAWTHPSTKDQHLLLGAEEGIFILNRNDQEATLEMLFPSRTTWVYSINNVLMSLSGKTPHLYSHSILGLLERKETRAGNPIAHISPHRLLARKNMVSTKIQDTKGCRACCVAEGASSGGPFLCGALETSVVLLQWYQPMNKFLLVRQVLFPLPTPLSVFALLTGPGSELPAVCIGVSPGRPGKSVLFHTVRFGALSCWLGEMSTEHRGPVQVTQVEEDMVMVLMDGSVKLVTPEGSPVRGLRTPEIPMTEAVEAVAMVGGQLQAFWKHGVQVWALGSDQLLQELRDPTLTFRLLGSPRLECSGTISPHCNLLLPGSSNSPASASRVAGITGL

Row | SMILES | IC50 (HPK1 kinase [1]) | DC50 (HPK1 kinase [2]; class symbols) | DC50 (HPK1 kinase [2]; numeric values)
1 | Cc1ccn2c(-c3c[nH]c4ncc(-c5cc(C)c(C6=CCN(CC7CN(c8ccc(N9CCC(=O)NC9=O)c(F)c8)C7)CC6)c(C)c5)nc34)cnc2c1 [compound 168] | < 10 nM | < 10 nM | –
2 | Cc1cc(-c2cnc3[nH]cc(-c4ccc(C(=O)N(C)C)cc4)c3n2)cc(C)c1C1=CCN(CC2CN(c3ccc(N4CCC(=O)NC4=O)cc3)C2)CC1 [compound 008] | < 10 nM | < 10 nM | –
3 | Cc1cc(-c2cnc3[nH]cc(-c4ccc(C(=O)N(C)C)cc4)c3n2)cc(C)c1C1=CCN(CC2CN(c3cc(F)c(N4CCC(=O)NC4=O)c(F)c3)C2)CC1 [compound 141] | – | < 10 nM | –
4 | Cc1cc(-c2cnc3[nH]cc(-c4ccc(C(=O)N(C)C)cc4)c3n2)cc(C)c1C1=CCN(C2CC3(CCN(c4ccc(N5CCC(=O)NC5=O)c(F)c4)C3)C2)CC1 (centres unmarked) [compound 117] | < 10 nM | < 10 nM | –
5 | Cc1cc(-c2cnc3[nH]cc(-c4cncs4)c3n2)cc(C)c1C1=CCN(CC2CN(c3ccc(N4CCC(=O)NC4=O)c(F)c3)C2)CC1 [compound 153] | < 10 nM | < 10 nM | –
6 | Cc1cc(N2CC(CN3CC=C(c4c(C)cc(-c5cnc6[nH]cc(-c7cnc8ccn(C)c8c7)c6c5)cc4C)CC3)C2)ccc1N1CCC(=O)NC1=O [compound 111] | < 10 nM | < 10 nM | –
7 | Cc1cc(N2CC(CN3CC=C(c4ccc(-c5cnc6[nH]cc(-c7ccc(C(=O)N(C)C)cc7)c6n5)cc4CN(C)C)CC3)C2)ccc1N1CCC(=O)NC1=O [compound 139] | < 10 nM | < 10 nM | –
8 | Cc1cc(N2CC(CN3CC=C(c4c(C)cc(-c5cnc6[nH]cc(-c7ccc(C(=O)N(C)C)cc7F)c6n5)cc4C)CC3)C2)ccc1N1CCC(=O)NC1=O [compound 140] | < 10 nM | < 10 nM | –
9 | CCN1CCC(n2cc(-c3c[nH]c4ncc(-c5cc(C)c(C6=CCN(CC7CN(c8ccc(N9CCC(=O)NC9=O)c(F)c8)C7)CC6)c(C)c5)nc34)cn2)CC1 [compound 108] | < 10 nM | – | 22.3 nM
10 | Cc1cc(-c2cnc3[nH]cc(-n4cc(N5CCOCC5)cn4)c3n2)cc(C)c1C1=CCN(CC2CN(c3ccc(N4CCC(=O)NC4=O)c(F)c3)C2)CC1 [compound 157] | < 10 nM | < 10 nM | –
11 | Cc1cc(-c2cnc3[nH]cc(-n4ncc5c4CCC5)c3n2)cc(C)c1C1=CCN(CC2CN(c3ccc(N4CCC(=O)NC4=O)c(F)c3)C2)CC1 [compound 164] | < 10 nM | < 10 nM | –
12 | Cc1cc(-c2cnc3[nH]cc(-n4cc(C#N)cn4)c3n2)cc(C)c1C1=CCN(CC2CN(c3ccc(N4CCC(=O)NC4=O)c(F)c3)C2)CC1 [compound 161] | < 10 nM | < 10 nM | –
13 | Cc1cc(-c2cnc3[nH]cc(-c4cn(CC(F)(F)F)nn4)c3n2)cc(C)c1C1=CCN(CC2CN(c3ccc(N4CCC(=O)NC4=O)c(F)c3)C2)CC1 [compound 148] | < 10 nM | < 10 nM | –
14 | Cc1cc(-c2cnc3[nH]cc(-c4cnco4)c3n2)cc(C)c1C1=CCN(CC2CN(c3ccc(N4CCC(=O)NC4=O)c(F)c3)C2)CC1 [compound 169] | < 10 nM | < 10 nM | –
15 | Cc1cc(-c2cnc3[nH]cc(-c4cnsc4)c3n2)cc(C)c1C1=CCN(CC2CN(c3ccc(N4CCC(=O)NC4=O)c(F)c3)C2)CC1 [compound 154] | < 10 nM | < 10 nM | –
16 | Cc1cnn(-c2c[nH]c3ncc(-c4cc(C)c(C5=CCN(CC6CN(c7ccc(N8CCC(=O)NC8=O)c(F)c7)C6)CC5)c(C)c4)nc23)c1 [compound 158] | < 10 nM | < 10 nM | –
17 | Cc1nsc(-c2c[nH]c3ncc(-c4cc(C)c(C5=CCN(CC6CN(c7ccc(N8CCC(=O)NC8=O)c(F)c7)C6)CC5)c(C)c4)nc23)n1 [compound 171] | < 10 nM | < 10 nM | –
18 | Cc1cc(-c2cnc3[nH]cc(-c4ccc(C(=O)N(C)C)cc4)c3n2)cc(C)c1C1=CCN(CC2CN(c3ccc(C4CCC(=O)NC4=O)c(F)c3)C2)CC1 (centres unmarked) [compound 003] | < 10 nM | < 10 nM | –

Row | SMILES | IC50 (HPK1 kinase [1]) | DC50 (HPK1 kinase [2]; class symbols) | DC50 (HPK1 kinase [2]; numeric values)
19 | Cc1cc(-c2cnc3[nH]cc(-c4c(C)noc4C)c3n2)cc(C)c1C1=CCN(CC2CN(c3ccc(N4CCC(=O)NC4=O)c(F)c3)C2)CC1 [compound 155] | < 10 nM | < 10 nM | –
20 | Cc1cc(-c2cnc3[nH]cc(-c4ccc(C(=O)N(C)C)cc4)c3c2)cc(C)c1C1=CCN(CC2CN(c3ccc(N4CCC(=O)NC4=O)c(Cl)c3)C2)CC1 [compound 142] | < 10 nM | < 10 nM | –
21 | Cc1cc(N2CC(CN3CC=C(c4c(C)cc(-c5cnc6[nH]cc(-c7cnc8c(c7)N(C)CCO8)c6n5)cc4C)CC3)C2)ccc1N1CCC(=O)NC1=O [compound 132] | < 10 nM | < 10 nM | –
22 | Cc1cc(-c2c[nH]c3ncc(-c4cc(C)c(C5=CCN(CC6CN(c7ccc(C(=O)NC8CCC(=O)NC8=O)cc7)C6)CC5)c(C)c4)nc23)ccc1C(=O)N(C)C (centres unmarked) [compound 028] | < 10 nM | < 10 nM | –
23 | Cc1cc(-c2cnc3[nH]cc(-c4ccc(C(=O)N(C)C)cc4)c3n2)cc(C)c1C1=CCN(C2CC3(C2)CN(c2ccc(N4CCC(=O)NC4=O)c(F)c2)C3)CC1 [compound 119] | < 10 nM | < 10 nM | –
24 | Cc1cc(-c2cnc3[nH]cc(-c4cnc5ccc(C#N)cn45)c3n2)cc(C)c1C1=CCN(CC2CN(c3ccc(N4CCC(=O)NC4=O)c(F)c3)C2)CC1 [compound 166] | < 10 nM | < 10 nM | –
25 | Cc1cc(-c2cnc3[nH]cc(-n4cc(C(F)F)cn4)c3n2)cc(C)c1C1=CCN(CC2CN(c3ccc(N4CCC(=O)NC4=O)c(F)c3)C2)CC1 [compound 159] | < 10 nM | < 10 nM | –
26 | CCc1nc(C)c(-c2c[nH]c3ncc(-c4cc(C)c(C5=CCN(CC6CN(c7ccc(N8CCC(=O)NC8=O)c(F)c7)C6)CC5)c(C)c4)nc23)s1 [compound 152] | < 10 nM | < 10 nM | –
27 | Cc1cc(N2CC(CN3CC=C(c4c(C)cc(-c5cnc6[nH]cc(-c7ccc(C(=O)N(C)C)cc7)c6c5)cc4C)CC3)C2)ccc1N1CCC(=O)NC1=O [compound 013] | < 10 nM | < 10 nM | –
28 | Cc1cc(C(=O)N2CC(N3CC=C(c4c(C)cc(-c5cnc6[nH]cc(-c7ccc(C(=O)N(C)C)cc7)c6n5)cc4C)CC3)C2)ccc1C1CCC(=O)NC1=O (centres unmarked) [compound 010] | < 10 nM | – | –
29 | Cc1cc(NCC2(CN3CC=C(c4c(C)cc(-c5cnc6[nH]cc(-c7ccc(C(=O)N(C)C)cc7)c6n5)cc4C)CC3)CC2)ccc1N1CCC(=O)NC1=O [compound 040] | < 10 nM | – | –
30 | Cc1cc(-c2cnc3[nH]cc(-c4ccc(C(=O)N(C)C)cc4)c3n2)cc(C)c1C1=CCN(C2CN(c3cc(F)c(C4CCC(=O)NC4=O)c(F)c3)C2)CC1 (centres unmarked) [compound 007] | < 10 nM | – | –
31 | CN(C)C(=O)c1ccc(-c2c[nH]c3ncc(-c4cnc(C5=CCN(CC6CN(c7ccc(C(=O)NC8CCC(=O)NC8=O)cn7)C6)CC5)c(F)c4)nc23)cc1 (centres unmarked) [compound 054] | < 10 nM | – | –
32 | COc1cc(N2CC(CN3CC=C(c4c(C)cc(-c5cnc6[nH]cc(-c7ccc(C(=O)N(C)C)cc7)c6n5)cc4C)CC3)C2)ccc1N1CCC(=O)NC1=O [compound 004] | < 10 nM | – | –
33 | Cc1cc(-c2cnc3[nH]cc(-c4ccc(C(=O)N(C)C)cc4)c3c2)cc(C)c1C1=CCN(CC2CCN(C(=O)c3ccc(Cl)c(N4CCC(=O)NC4=O)c3)CC2)CC1 [compound 126] | < 10 nM | – | –
34 | CNS(=O)(=O)c1cc(C)cc(-c2cnc(N)c(Oc3cnn(C4CCN(CC5CN(c6ccc(C(=O)NC7CCC(=O)NC7=O)cc6)C5)CC4)c3)n2)c1 (centres unmarked) [compound 090] | < 10 nM | – | –
35 | Cc1cc(-c2cnc3[nH]cc(-c4ccc(C(=O)N(C)C)cc4)c3n2)cc(C)c1C1=CCN(CC2CCN(c3ccc(C(=O)NC4CCC(=O)NC4=O)cc3)CC2)CC1 (centres unmarked) [compound 065] | < 10 nM | – | –
36 | COc1cc(C(=O)CCN2CC=C(c3c(C)cc(-c4cnc5[nH]cc(-c6ccc(C(=O)N(C)C)cc6)c5n4)cc3C)CC2)ccc1C1CCC(=O)NC1=O (centres unmarked) [compound 009] | < 10 nM | – | –
